Reference: patent US20260355184A1, “SMALL MOLECULE DEGRADERS OF HIV-1 TAT PROTEIN” (priority 2022, published 2026)
Like-named read-outs stand apart in the source and are kept apart here.

Columns and labels:
HIV NL4.3 strain = experiment: HIV infectivity assay, reporter cell line HeLa-CD4-LTR-LacZ, β-Gal activity (Tat protein inhibition); format: cell-based, HIV-1 (NL4.3)
Procedure: (§1) Next, the activity of these leads against HIV infection was evaluated using the reporter cell line HeLa-CD4-LTR-LacZ, which stably expresses the β-galactosidase (β-Gal) gene under the control of the HIV 5′ LTR. The HIV NL4.3 strain was used for these studies and β-Gal activity was measured 72 hrs post infection (FIG. 3A). Cytotoxicity assays using Cell-Titer-Glo were performed in parallel to assess cell viability (FIG. 3A). […] Their anti-HIV activity was further assessed in acute replication of Jurkat T cells with the NL4.3 strain (FIG. 3A). […] These OM10.1 cells contain a single integrated wild-type provirus, while ACH-2 cells contain a single integrated provirus with a TAR mutation C37T, defective Tat-TAR feedback loop (FIG. 3B).

HeLa-CD4-LTR-LacZ cells = experiment: Cytotoxicity assay, Cell-Titer-Glo, HeLa-CD4-LTR-LacZ; details: read-out: Infectivity CC50, HeLa-CD4-LTR-LacZ
Procedure: as §1

Flag-Tat = molecular target: T1, Flag-Tat (Human immunodeficiency virus type 1 (HXB3 ISOLATE), UniProt P69698); experiment: Degradation assay: Flag-Tat in HEK293T cells, western blot; format: cell-based, HIV; details: HEK293T; western blot
T1 construct: Tat 86 aa likely (9 lysines)
Procedure: Next, the effect of the three leads on the alteration of Tat steady state levels was assessed. Tat expression from an integrated provirus, or from HIV acute infection is generally too low to be detected by western blot. Furthermore, antibodies against Tat are known for their lack of avidity. Tat degradation was thus assessed upon transfection. Flag-Tat or Flag-GFP were individually transfected into HEK293T and 24 hrs later, TT-44856, TT-44863 or TT-44881 were added to the culture, followed by Western blot 24 hrs later (dubbed “degradation assay”) (FIG. 5A). […] These cells were treated with TNFα (previously determined not be degraded by the three leads in FIG. 2D) in the presence of TT-44856, TT-44863 or TT-44881, followed by western blot with an anti-Flag antibody 17 hrs later. […] Finally, the leads' impact on recombinant Tat protein in HEK293T cells was assessed (FIG. 5D). HEK293T cells were incubated with recombinant Tat for 4 hrs to allow Tat internalization, followed by several thorough washes to remove unincorporated Tat. Cells were then incubated with all three leads (or Triptolide) for an additional 2 hrs. Cells were lysed and analyzed by western blot with an anti-Tat serum.
Degradation of Tat has been reported in the literature in multiple ways, including the lysosomal pathway^23, the ubiquitin-independent 20S proteasomal pathway (due to its unfolded structure)^24,25, and the ubiquitin-dependent 26S proteasomal pathway^26. It was first assessed whether Tat was targeted to the lysosomal pathway by the lead compounds. HEK293T cells were transfected with Flag-Tat for 24 hrs, incubated with the compounds for an additional 24 hrs, then treated for 8 hrs with either 100 μM chloroquine or 50 mM NH4Cl, both known to inhibit lysosomal hydrolases by reducing acidification. […] Both the 20S and the 26S proteasomal pathways were next investigated using MG132, an inhibitor of the catalytic […] of 20S present in both pathways^27. The degradation assay was carried out as above, but compounds were simultaneously incubated with MG132 20 μM or DMSO for 17 hrs followed by western blot. In the presence of MG132, Tat degradation was rescued, but the rescue was higher in the presence of the lead compounds (FIG. 6B).
Protein ubiquitination occurs by sequential recruitment of ubiquitin-activating enzyme E1, ubiquitin-conjugating enzyme E2, and ubiquitin ligase E3 (using ubiquitin, substrate protein, and ATP). The selectivity in protein ubiquitination is conferred by E3 ubiquitin ligases that recognize the substrate proteins^29 and the human genome contains more than 600 E3 ubiquitin ligases^29. To determine whether the small molecule leads trigger the 20S or the 26S proteasomal pathways, the Tat degradation assay was performed in the presence of commercially available E3 ligase inhibitors, including Lenalidomide a E3 ubiquitin ligase Cereblon inhibitor. Cereblon has not been previously reported to ubiquitinate Tat. The degradation assays were performed as above with Lenalidomide (40 μM) or DMSO incubation for 4 hrs in the presence of the lead molecules (FIG. 7A). […] To confirm the engagement of Cereblon in the mechanism of action of the lead compounds, shRNAs were used to stably knock down Cerebelon, or CD8 control, in HEK293T cells, and the degradation assay for TT-44856 was performed.
The involvement of the ubiquitous VHL E3 ligase in the activity of TT-44881 inducing Tat degradation was also investigated. HEK293T cells overexpressing Tat protein and VHL siRNAs (or si control) were treated with either TT-44881 (60 μM) and DMSO or TT-44881 with a VHL PROTAC (CM11, 500 nM) for 24 hours. siRNAs and PROTACs were used together to maximize the depletion of both VHL isoforms (30 and 19 kDa).

[1] = Cytotoxicity assay, Cell-Titer-Glo, HeLa-CD4-LTR-LacZ; details: human, hela-cd4-ltr-lacz cells, Infectivity CC50, HeLa-CD4-LTR-LacZ
Procedure: as §1

[2] = read-out: Infectivity IC50, HeLa-CD4-LTR-LacZ, analogs of TT-44856 (Table 3)
[3] = Human immunodeficiency virus 1, read-out: Infectivity IC50, HeLa-CD4-LTR-LacZ, analogs of TT-44881 (Table 1)
[4] = Human immunodeficiency virus 1, read-out: Infectivity IC50, HeLa-CD4-LTR-LacZ, analogs of TT-44863 (Table 2)

T1 sequence (P69698 whole entry): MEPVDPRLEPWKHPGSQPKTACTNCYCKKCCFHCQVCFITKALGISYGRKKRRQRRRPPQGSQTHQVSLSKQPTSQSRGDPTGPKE

SMILES	IC50 (HIV NL4.3 strain; [3]) [µM]	CC50 ([1]; analogs of TT-44881 (Table 1)) [µM]	IC50 (HIV NL4.3 strain; [4]) [µM]	CC50 ([1]; analogs of TT-44863 (Table 2)) [µM]	other results
Cc1nccn1CCCNC(=O)C(C)(c1ccccc1)c1ccccc1 [3-53]					IC50 (HIV NL4.3 strain; [2]): 1 to 10 µM; CC50 (HeLa-CD4-LTR-LacZ cells; analogs of TT-44856 (Table 3)): 50 to 100 µM
O=C(NCCCn1ccnc1)C(c1ccccc1)c1ccccc1 [3-71]					IC50 (HIV NL4.3 strain; [2]): 1 to 30 µM; CC50 (HeLa-CD4-LTR-LacZ cells; analogs of TT-44856 (Table 3)): > 100 µM
O=C(NCCCN1CCCC1=O)c1nn(-c2ccccc2)c2c1CCCC2 [GB-02]					IC50 (HIV NL4.3 strain; read-out: Infectivity IC50, HeLa-CD4-LTR-LacZ, analogs of TT-44881 (Table 1)): 50 to 100 µM; CC50 (HeLa-CD4-LTR-LacZ cells; analogs of TT-44881 (Table 1)): > 100 µM
CN(CCCN1CCCC1=O)C(=O)c1nn(-c2ccccc2)c2c1CCC2 [GB-04]	> 100	> 100			Flag-Tat degradation / steady state (Flag-Tat): did not affect Flag-Tat steady state
COc1ccc(C#N)cc1NC(=O)Cn1cccc(Cl)c1=O [TT-46766]			> 100	> 100	Flag-Tat degradation / steady state (Flag-Tat): did not affect Flag-Tat steady state
CC(C)(C)OC(=O)COCCOCCOc1ccc(C(F)(F)F)cc1NC(=O)Cn1cc(C(F)(F)F)cc(Cl)c1=O [compound 56]					IC50 (HIV NL4.3 strain; read-out: Infectivity IC50, HeLa-CD4-LTR-LacZ, analogs of TT-44863 (Table 2)): > 100 µM; CC50 (HeLa-CD4-LTR-LacZ cells; analogs of TT-44863 (Table 2)): > 100 µM
COc1ccc(C(F)(F)F)cc1CNC(=O)Cn1cc(C(F)(F)F)cc(Cl)c1=O [compound 46875]			> 100	> 100	
O=C(NCCCN1CCCC1=O)c1cn(-c2ccccc2)c2ccccc12 [compound 46878]	50 to 100	> 100			
O=C(NCCCN1CCCC1=O)c1cn(-c2ccccc2)c2ncc(F)cc12 [compound 46879]	1 to 50	> 100			
O=C(NCCCN1CCCC1=O)c1cn(-c2ccccc2)c2ccc(F)cc12 [compound 46880]	50 to 100	50 to 100			
O=C(NCCCN1CCCC1=O)c1nn(Cc2ccccc2)c2c1CCC2 [compound 46885]	> 100	> 100			
COc1ccc(C(F)(F)F)cc1NC(=O)Cn1cc(C(F)(F)F)ccc1=O [compound 46917]			1 to 30	> 100	
Cc1cc(NCCCN2CCCC2=O)n2nc(C)nc2n1 [compound 46930]	> 100	> 100			
O=C(NCCCN1CCCC1=O)c1nc2ccccc2[nH]c1=O [compound 46931]	10 to 30	> 100			
CCn1nc(C(=O)NCCCN2CCCC2=O)c2c1CCC2 [compound 46932]	> 100	> 100			
O=C(NCCCN1CCCC1=O)c1nn(CC2CCC2)c2c1CCC2 [compound 46933]	> 100	> 100			
O=C(NCCCN1CCCC1=O)c1nnc(-c2ccccc2)c2ccccc12 [compound 46934]	> 100	> 100			
O=C(NCCCN1CCCC1=O)c1cnn(-c2ccccc2)c1 [compound 46935]	> 100	> 100			
COc1ccc(C#N)cc1NC(=O)Cn1cc(C)cc(Cl)c1=O [compound 46946]			> 50	> 50	
COc1ccc(C(F)(F)F)cc1CNC(=O)Cn1cc(C)cc(Cl)c1=O [compound 46957]			> 50	> 50	

SMILES	IC50 (HIV NL4.3 strain; [3]) [µM]	CC50 ([1]; analogs of TT-44881 (Table 1)) [µM]	IC50 (HIV NL4.3 strain; [4]) [µM]	CC50 ([1]; analogs of TT-44863 (Table 2)) [µM]	other results
COc1ccc(C(F)(F)F)cc1CNC(=O)Cn1cc(C(F)(F)F)ccc1=O [compound 46960]			> 100	> 100	
O=C(NCCCN1CCCC1=O)c1nn(-c2ccccc2)cc1C(F)(F)F [compound 46979]	50 to 100	> 100			
Cc1ccc(C(F)(F)F)cc1NC(=O)Cn1cc(C(F)(F)F)cc(Cl)c1=O [compound 47001]			1 to 10	> 100	
COc1ccc(C(F)(F)F)cc1NC(=O)Cn1cc(F)cc(Cl)c1=O [compound 47006]			> 50	> 50	
O=C(NCCCN1CCCC1=O)c1nn(-c2ccccc2)cc1F [compound 47010]	> 100	> 100			
O=C(NCCCN1CCCC1=O)c1nn(-c2ccccc2)cc1C1CC1 [compound 47011]	> 100	> 100			
COc1ccc(C(F)(F)F)cc1NC(=O)Cn1cc(C#N)cc(Cl)c1=O [compound 47018]			> 50	> 50	
COc1ccc(C(F)(F)F)cc1NC(=O)CCn1cc(C(F)(F)F)cc(Cl)c1=O [compound 47020]			> 25	> 25	
COc1ccc(C(F)(F)F)cc1NC(=O)Cn1cc(C(F)(F)F)cc(F)c1=O [compound 47033]			1 to 10	50 to 100	
O=C(NCCCN1CCCC1=O)c1nc2ccccc2n1-c1ccccc1 [compound 47051]	> 25	> 25			
COc1ccc(C(F)(F)F)cc1NC(=O)Cn1cc(C(F)(F)F)cc(Br)c1=O [compound 47055]			1 to 10	50 to 100	
N#Cc1ccc(C(F)(F)F)cc1NC(=O)Cn1cc(C(F)(F)F)cc(Cl)c1=O [compound 47061]			> 100	> 100	
CCOC(=O)c1sc(NC(=O)Cn2cc(C(F)(F)F)cc(Cl)c2=O)nc1C(F)(F)F [compound 47063]			23.7	25 to 50	
CC(C)(C)c1cn(-c2ccccc2)nc1C(=O)NCCCN1CCCC1=O [compound 47091]	> 100	50 to 100			
CC(C)c1nn(-c2ccccc2)cc1C(=O)NCCCN1CCCC1=O [compound 47092]	> 100	> 100			
COc1ccc(C(F)(F)F)cc1-c1noc(Cn2cc(C(F)(F)F)cc(Cl)c2=O)n1 [compound 47111]			> 100	> 100	
O=C(NCCCN1CCCC1=O)c1ccc(=O)n(-c2ccccc2)c1 [compound 47155]	> 100	> 100			
COc1cc(C(F)(F)F)ccc1NC(=O)Cn1cccc(Cl)c1=O [compound 47171]			> 100	> 100	
COc1ccc(C(F)(F)F)cc1-c1noc(Cn2cc(C)cc(Cl)c2=O)n1 [compound 47198]			> 50	> 50	
COc1ccc(C(F)(F)F)cc1-c1noc(Cn2cc(C(F)(F)F)ccc2=O)n1 [compound 47199]			> 50	> 50	
